Laboratory results reported in paper PMC5837813 (Bioorganic & medicinal chemistry letters, 2018).

Experiments:
FAAH [1] = biological target: T1, FAAH (Homo sapiens, UniProt O00519); details: pre-incubated with FAAH at various time intervals, [S]final = 5 µM
T1 sequence (O00519 1-579): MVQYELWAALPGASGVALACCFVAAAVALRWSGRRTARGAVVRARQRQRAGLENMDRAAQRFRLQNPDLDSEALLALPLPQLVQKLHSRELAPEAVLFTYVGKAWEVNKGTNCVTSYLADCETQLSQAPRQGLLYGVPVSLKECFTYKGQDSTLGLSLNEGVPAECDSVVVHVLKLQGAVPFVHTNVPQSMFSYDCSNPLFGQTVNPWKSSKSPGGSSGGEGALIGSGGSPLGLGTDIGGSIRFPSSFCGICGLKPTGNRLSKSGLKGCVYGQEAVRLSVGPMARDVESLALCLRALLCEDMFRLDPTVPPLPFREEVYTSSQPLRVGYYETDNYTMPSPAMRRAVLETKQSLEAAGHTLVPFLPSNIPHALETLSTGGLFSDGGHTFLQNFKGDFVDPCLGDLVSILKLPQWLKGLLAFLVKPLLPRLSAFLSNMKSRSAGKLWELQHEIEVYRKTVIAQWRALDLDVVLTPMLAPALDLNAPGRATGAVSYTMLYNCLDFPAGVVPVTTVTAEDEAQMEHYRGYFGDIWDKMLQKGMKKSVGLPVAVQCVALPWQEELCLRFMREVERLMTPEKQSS

human sEH = biological target: T2, human sEH (Homo sapiens, UniProt P34913); experiment: recombinant human sEH inhibition, fluorescent-based substrate; format: biochemical
T2 sequence (P34913 1-555): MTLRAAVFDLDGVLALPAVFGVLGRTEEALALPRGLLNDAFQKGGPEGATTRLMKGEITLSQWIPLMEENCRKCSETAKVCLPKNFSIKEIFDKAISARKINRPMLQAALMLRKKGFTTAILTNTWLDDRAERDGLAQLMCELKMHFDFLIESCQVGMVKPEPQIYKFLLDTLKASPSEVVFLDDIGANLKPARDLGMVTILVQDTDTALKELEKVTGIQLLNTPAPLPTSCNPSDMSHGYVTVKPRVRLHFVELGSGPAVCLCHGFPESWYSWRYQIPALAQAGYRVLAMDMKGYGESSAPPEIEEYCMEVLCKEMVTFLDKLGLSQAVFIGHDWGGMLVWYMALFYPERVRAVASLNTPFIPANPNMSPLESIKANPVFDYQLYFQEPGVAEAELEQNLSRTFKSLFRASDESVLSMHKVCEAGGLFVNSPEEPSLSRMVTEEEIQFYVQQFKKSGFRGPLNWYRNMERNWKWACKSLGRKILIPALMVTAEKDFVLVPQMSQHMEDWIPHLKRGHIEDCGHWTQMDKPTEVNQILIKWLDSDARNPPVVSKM

FAAH [2] = experiment: block of activity in brain microsomes of the different species tested
FAAH [3] = biological target: T1, FAAH; experiment: biochemical

Compound | change of FAAH potency with pre-incubation time (in words) (FAAH [1]) | IC50 (human sEH) | activity blocked in the microsomes (FAAH [2]) | IC50 (FAAH [3])
NC(=O)c1cccc(-c2cccc(OC(=O)NC3CCCCC3)c2)c1 [URB597, 3'-carbamoyl-[1-1'-biphenyl]-3-yl cyclohexylcarbamate] | time dependent |  |  | 
O=C(Nc1cccnc1)N1CCC(Cc2cccc(Oc3ccc(C(F)(F)F)cn3)c2)CC1 [PF-3845, N-(pyridin-3-yl)-4-(3-((5-(trifluoromethyl)pyridin-2-yl)oxy)benzyl)piperidine-1-carboxamide] |  | > 10000 nM | > 80% | 0.6 nM
